Experimental findings from US20140031388A1, “AKT INACTIVATION BY TOCOPHERYL DERIVATIVES” (priority 2012, published 2014) are described below.

Structures are written as SMILES. Read-outs that look alike come from different tables or passages of the source.

The subject of one test is LNCaP cells. Description: MTT viability assay, LNCaP. In kind it is cell-based. The note with it: Homo sapiens. The procedure:
(§1) The prostate cancer cell lines, LNCaP and PC-3, were purchased from American Type Culture Collection (Manassas, Va.) and maintained in RPMI 1640 medium containing 10% heat-inactivated fetal bovine serum at 37° C. in a humidified incubator containing 5% CO2. The LNCaP-abl cells were a generous gift from Dr. Qianben Wang (The Ohio State University). Normal prostate epithelial cells were purchased from Lonza (Walkersville, Md.) and were cultured in the vendor-recommended defined prostate epithelial cell growth medium. For experiments, LNCaP cells were plated on poly-D-lysine-coated culture flasks at a density of 12,000 cells per cm^2 surface area for 24 hours, followed by treatment with test agents in serum-free RPMI 1640 medium. The α- and γ-tocopherols were purchased from Sigma-Aldrich (St. Louis, Mo.). The tocopherol derivatives, α- and γ-VE5, were synthesized by the inventors.
(§2) LNCaP cells were plated into poly-D-lysine-coated 96-well plates and PC-3 and LNCaP-abl cells into uncoated plates at the density of 5,000 cells per well in the presence of 10% FBS. Normal prostate epithelial cells were plated into uncoated plates at a density of 8,000 cells per well. […] After 24 hours of treatment, cells were incubated with MTT [3-(4,5-dimethylthiazol-2-yl)-2,5-diphenyl-2H-tetrazolium bromide] (TCI America; 0.5 mg/ml, final concentration) for an additional 2 hours. The medium was then removed from each well and replaced with DMSO to dissolve the reduced MTT dye for subsequent colorimetric measurement of absorbance at 595 nm. Cell viabilities are calculated as percentages of that in the corresponding vehicle-treated control group.
(In general: Tetrazolium assays rely on reduction of a dye to a coloured formazan, in cell work by metabolically active cells.)

The next test concerns PC-3 cells. Description: MTT viability assay, PC-3. The following applies: Homo sapiens. In kind it is cell-based. The procedure: as §1, §2
The test system of another test is AsPC-1. The experiment in a line: Antiproliferative potency, AsPC-1. In kind it is cell-based. The following applies: Homo sapiens.
The test system of another test is BxPC-3. Description: Antiproliferative potency, BxPC-3. It is filed as cell-based. The note with it: Homo sapiens.
The test system of the next test is MDA-MB-231. The experiment in a line: Antiproliferative potency, MDA-MB-231. It is filed as cell-based. The following applies: Homo sapiens.
The target in test [1] is T1, PH domain of Akt (GST-PH domain fusion protein) (Homo sapiens, UniProt P31749).
T1 construct: made in house
The experiment in a line: Surface plasmon resonance binding, Akt PH domain. The note with it: Table 3; binding affinities to the Akt PH domain; read-out: Kd. From the text:
The cDNA fragments corresponding to the putative PH domain sequences of PHLPP1 (+115 to +372), PDK1 (+1225 to +1671), Akt1 (+1 to +447) and ILK (+538 to +646) were PCR-amplified using the plasmids pcDNA-HA-PHLPP1, pWZL-Neo-Myr-FLAG-PDPK1, pcDNA-HA-PKB-T308D-S473D, and pCMV-SPORT-ILK (Addgene) as templates. The PCR products were then cloned into EcoRI/XhoI sites of the pGEX-4T1 expression vector (GE Healthcare Life Sciences) to generate four constructs (pGEX-4T1-PHLPP1, pGEX-4T1-PDPK1, pGEX-4T1-AKT1, pGEX-4T1-ILK) for the expression of GST-PH domain fusion proteins. The mutated Akt1 Y38G PH domain was generated from pGEX-4T1-AKT1 by site-directed mutagenesis using the QuikChange II XL Site-Directed Mutagenesis Kit (Agilent Technologies). The expression and purification of GST-PH domain fusion proteins were performed essentially as described previously. Thomas et al., Curr Biol 12, 1256 (2002). The purified PH domains were analyzed by SDS-PAGE using an overloaded gel with purities were estimated to be >95% using ImageJ software.
Binding experiments were performed using a Biacore T100 system (GE Healthcare, Piscataway, N.J.). The GST-PH domain fusion proteins were immobilized on a CM5 S Sensorchip using Biacore's Amine Coupling Kit to a level of 17,000 response units. VE5 compounds and di-octanoyl PIP3 at concentrations ranging from 0.1 to 100 μM and 1 to 20 μm, respectively, were injected at a high flow rate (30 μL/min) over the biosensor surface for binding analyses. DMSO concentrations in all samples and running buffer were 1% (v/v) or less. Data were analyzed using Biacore T100 Evaluation Software.
(In general: SPR reads the build-up and loss of mass on a sensor chip optically.)

Test [2] deals with phosphorylation of Ser473 in Akt. The experiment in a line: Western blot of Akt phosphorylation at Ser473. It is filed as cell-based. The following applies: LNCaP and PC-3 cells, Thr308 not altered. The procedure: Cells were exposed to the test agents in 10-cm dishes for 24 hours and then collected by scraping. The cell pellets were washed once with PBS, and then lysed at 4° C. over 30 min of incubation in a sodium dodecyl sulfate (SDS) lysis buffer containing 1% SDS, 50 mM Tris HCl (pH 8.1), 10 mM EDTA and […] protease inhibitor cocktail (Sigma-Aldrich). The cell debris was pelleted by centrifugation for 20 min at 14,000×g, and 1 μl of each supernatant was used for determination of protein concentration using a colorimetric bicinchoninic assay (Pierce, Rockford, Ill.). The remaining sample was added to equal volume of 2×SDS-polyacrylamide gel electrophoresis sample loading buffer (62.5 mM Tris-HCl, pH 6.8, 4% SDS, 5% β-mercaptoethanol, 20% glycerol, 0.1% bromophenol blue), followed by incubation in boiling water for 5 min. Equivalent amounts of total protein were resolved in SDS-polyacrylamide gels, and then transferred to nitrocellulose membranes using a semidry transfer cell. The transblotted membrane was washed twice with Tris-buffered saline containing 0.1% Tween 20 (TBST). After blocking with TBST containing 5% nonfat milk for 40 min, the membrane was incubated with the appropriate primary antibody (1:1000) in TBST-1% nonfat milk at 4° C. overnight. The membrane was then washed three times with TBST for a total of 15 min, followed by incubation with goat anti-rabbit or anti-mouse IgG-horseradish peroxidase conjugates (1:2000) for 1 hour at room temperature and four washes with TBST for a total of 1 hour. The immunoblots were visualized by enhanced chemiluminescence (GE Healthcare Life Sciences).

For another test, the system named is PC-3 xenograft tumor. The experiment in a line: PC-3 xenograft tumor growth (compound 1).

T1 sequence (P31749 5-108 limits assumed): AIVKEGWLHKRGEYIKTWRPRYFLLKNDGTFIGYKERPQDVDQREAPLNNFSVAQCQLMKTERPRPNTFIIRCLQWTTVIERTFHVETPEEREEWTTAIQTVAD

With `Cc1c(O)cc2c(c1C)OC(C)(CCCC(C)C)CC2=O` (stereo not shown) [Compound 1, 6-hydroxy-2,7,8-trimethyl-2-(4-methyl-pentyl)chroman-4-one], the IC50 in the test on LNCaP cells (24 h, 1% FBS-containing or serum-free RPMI 1640 medium for 24 h) was 7 µM; in the test on LNCaP cells (FBS 1%), 9 µM; in the test with LNCaP cells (FBS 5%), greater than 20 µM; in the test with PC-3 cells (PC-3, 24 h, 1% FBS-containing or serum-free RPMI 1640 medium for 24 h, read-out: IC50 (μM) PC-3), 5 µM; with PC-3 cells (PC-3, FBS 0%, read-out: IC50 (μM) PC-3), 4 µM; in the test with PC-3 cells (PC-3, FBS 1%, read-out: IC50 (μM) PC-3), 7 µM. The IC50 in the test with PC-3 cells (PC-3, FBS 5%, read-out: IC50 (μM) PC-3) was 14 µM; in the test on PC-3 cells (PC-3, Table 3, antitumor activities against PC-3 cells, read-out: IC50), 5 µM; in the test with AsPC-1 (ASPC1, FBS 0%), 5 µM; with AsPC-1 (ASPC1, FBS 1%) it was 11 µM; in the test on AsPC-1 (ASPC1, FBS 5%) it was 18 µM; in the test with BxPC-3 (BXPC-3, FBS 0%), 7 µM. Besides, the half-maximal inhibitory concentration (IC50) in the test on BxPC-3 (BXPC-3, FBS 1%) came out at 11 µM; with BxPC-3 (BXPC-3, FBS 5%), 21 µM; in the test with MDA-MB-231 (MDA-MB-231, FBS 0%) it was 6.5 µM; in the test on MDA-MB-231 (MDA-MB-231, FBS 5%), 20 µM. Besides, the Kd in test [1] came out at 0.32 µM. In test [2], the “effect on phosphorylation of Akt at Ser473” value was “more potent than γ-VE5”. In the test with PC-3 xenograft tumor, the “in vivo efficacy against PC-3 xenograft tumor growth” value is reported as “lacked in vivo efficacy”.

As a reminder, the IC50 is the concentration that gives 50% inhibition. Broadly, the Kd is the concentration at which binding is half-saturated.
